Legend:
[1] = test system: MDA-MB-231-LM3-3 orthotopic breast tumors; experiment: Therapeutic efficacy in orthotopic TNBC mouse model; type: in vivo, nude mice
Protocol: To establish orthotopic breast tumors, 0.75 × 10^6 MDA-MB-231-LM3-3 cells were injected into one of the second mammary fat pads of nude mice (Charles River Laboratories, female, 6–7 weeks, n = 6/group). Phospho-bufalin was dissolved in PBS for tumor treatment. PBS was injected as the vehicle control. When tumors became palpable, generally 14 days after injection, mice were randomized into two groups. The treatment group was then injected with phospho-bufalin subcutaneously (0.75 mg/kg per dose, 3 doses per week) for 3 weeks while the control group received PBS. Tumor lengths and widths were measured three times per week. Tumor sizes were calculated by: (length × width × width)/2.

heart muscle = experiment: H&E staining of heart tissues; details: 24 h after drug administration
Ki–67 = experiment: Ki-67 immunohistochemistry of tumor tissue; type: in vivo, nude mice; details: 0.75 mg/kg 3 times per week
Protocol: The formalin-fixed, paraffin-embedded tissue was dried at 58°C for 1 hour in an oven, and de-paraffinized by soaking slides in xylene, ethanol, and finally distilled water. Antigen was retrieved by steaming slides in a target retrieval solution, 10 mM citrate buffer (pH 6.0), for 30 minutes. Endogenous peroxidases were blocked with a 3% of hydrogen peroxide solution in PBS buffer. The leftover hydrogen peroxide was removed with PBS rinse. […] To stain the SRC–3 antigen, anti-SRC–3 antibody (Mouse source, BD Biosciences Inc. Cat# 611104) was pre-diluted 1:400 in a normal serum blocking solution. To stain the Ki–67 antigen, anti-Ki–67 (Rabbit source, Cell Signaling Technology Inc. Cat#9027) was used in 1:10000 dilution. During the staining procedure, the sections were incubated with HRP-polymer conjugated secondary antibodies (Vector Laboratories, Cat#7401 for rabbit antibody, Cat#MP–2400 for mouse antibody). To visualize the immunostaining, the sections were incubated with a fresh DAB solution (Dako Inc. Cat# K3468) and monitored under a microscope. Once ideal signals were observed, the reaction was stopped by rinsing the slides with water. Nuclear counterstain was also performed by immersing slides in Mayer’s Hematoxylin and a bluing reagent.

[2] = Pharmacokinetic study of 3-phospho-bufalin
Protocol: Five quality control (QC) samples at 10 ng/mL, 20 ng/mL, 500 ng/mL, 4000 ng/mL and 8000 ng/mL of plasma were prepared independently of those used for the calibration curves. QC samples were prepared on the day of analysis in the same way as the calibration standards.
Standards, QC samples, and unknown samples were injected into LC-MS/MS for quantitative analysis. The pharmacokinetic parameters of p-Buf were analyzed using WinNonLin. The PK trace was fitted into a non-compartmental extravascular model.

ICR mice = experiment: Electrocardiogram (EKG) measurements; type: in vivo, mouse;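 note: Non-invasive EKG recorded at several successive time points, with each individual signal then analysed by physiologic waveform analysis software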
Protocol: Non-invasive EKG recordings were made using the ECGenie system (Mouse Specifics) at several subsequent time points. […] Data acquisition was performed using the program LabChart 6 (AD Instruments). Individual EKG signals were then evaluated using e-MOUSE physiologic waveform analysis software (Mouse Specifics) as previously described [31].

SRC–3 [3] = molecular target: T1, SRC–3 (Homo sapiens, UniProt Q9Y6Q9); experiment: Western blotting of SRC-3, dose response in LM3-3 cells; type: cell-based; parameters: endogenous in cells
T1 sequence (Q9Y6Q9 whole entry): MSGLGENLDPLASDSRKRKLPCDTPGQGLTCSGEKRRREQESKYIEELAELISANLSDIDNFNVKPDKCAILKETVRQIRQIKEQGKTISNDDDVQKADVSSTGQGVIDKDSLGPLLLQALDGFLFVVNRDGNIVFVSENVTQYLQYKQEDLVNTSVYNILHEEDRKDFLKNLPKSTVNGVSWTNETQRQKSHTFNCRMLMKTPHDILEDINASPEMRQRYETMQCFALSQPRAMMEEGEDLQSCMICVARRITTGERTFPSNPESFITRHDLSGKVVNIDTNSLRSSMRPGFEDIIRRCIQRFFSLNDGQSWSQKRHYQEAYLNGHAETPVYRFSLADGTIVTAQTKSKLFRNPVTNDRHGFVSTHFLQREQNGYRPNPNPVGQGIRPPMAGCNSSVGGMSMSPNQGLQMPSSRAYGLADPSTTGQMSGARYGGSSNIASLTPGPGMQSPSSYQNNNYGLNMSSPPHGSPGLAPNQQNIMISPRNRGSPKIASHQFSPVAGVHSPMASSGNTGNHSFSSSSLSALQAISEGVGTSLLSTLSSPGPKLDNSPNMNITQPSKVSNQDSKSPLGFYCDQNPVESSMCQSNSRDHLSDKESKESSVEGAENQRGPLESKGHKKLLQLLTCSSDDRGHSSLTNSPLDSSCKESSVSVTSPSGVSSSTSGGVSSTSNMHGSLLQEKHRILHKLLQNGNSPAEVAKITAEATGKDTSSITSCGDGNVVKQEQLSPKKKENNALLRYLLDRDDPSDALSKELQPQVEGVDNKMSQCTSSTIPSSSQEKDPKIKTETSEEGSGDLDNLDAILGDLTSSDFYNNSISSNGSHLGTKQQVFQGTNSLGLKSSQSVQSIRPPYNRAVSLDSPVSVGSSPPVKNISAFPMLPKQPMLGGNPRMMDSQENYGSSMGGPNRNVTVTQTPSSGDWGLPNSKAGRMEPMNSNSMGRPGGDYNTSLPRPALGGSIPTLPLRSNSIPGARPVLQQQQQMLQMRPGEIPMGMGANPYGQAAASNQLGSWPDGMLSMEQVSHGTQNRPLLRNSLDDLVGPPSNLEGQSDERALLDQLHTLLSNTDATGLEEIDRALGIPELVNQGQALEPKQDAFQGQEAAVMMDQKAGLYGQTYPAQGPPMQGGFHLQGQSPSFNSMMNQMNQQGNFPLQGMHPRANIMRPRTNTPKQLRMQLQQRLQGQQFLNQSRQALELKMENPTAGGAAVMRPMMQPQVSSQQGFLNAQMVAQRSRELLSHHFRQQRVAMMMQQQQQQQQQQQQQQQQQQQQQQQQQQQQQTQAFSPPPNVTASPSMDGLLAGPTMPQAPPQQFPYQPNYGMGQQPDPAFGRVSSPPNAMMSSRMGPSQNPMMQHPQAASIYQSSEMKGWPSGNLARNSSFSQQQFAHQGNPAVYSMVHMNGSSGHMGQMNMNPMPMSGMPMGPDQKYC

SRC–3 [4] = molecular target: T1, SRC–3; experiment: SRC-3 levels in tumor tissues (Western blotting, IHC); type: in vivo, nude mice; parameters: from tissue; host or cells: orthotopic MDA-MB-231-LM3-3 xenograft tumours from nude mice; details: 0.75 mg/kg 3 times per week
Protocol: Cell lysate was prepared by adding RIPA buffer (containing 10 mM Tris-Cl pH 8.0, 1 mM EDTA, 0.5 mM EGTA, 1% Triton X–100, 0.1% sodium deoxycholate, 0.1% SDS, 140 mM NaCl, and protease inhibitors) to cells kept on ice. After spinning samples at 16,000 rpm for 15 minutes at 4°C, insoluble materials in the collected cell lysate were precipitated and discarded. The total protein concentration was measured using a Bradford protein assay. An equivalent mass of each sample was loaded and electrophoretically separated by 10% SDS-PAGE. Then proteins on PAGE the gel were transferred to a PVDF membrane. Anti-SRC–3 (Cell Signaling Technology Co. Cat# 2126) and anti-actin (Cell Signaling Technology Co. Cat# 8457) were used to probe the membranes.
The formalin-fixed, paraffin-embedded tissue was dried at 58°C for 1 hour in an oven, and de-paraffinized by soaking slides in xylene, ethanol, and finally distilled water. Antigen was retrieved by steaming slides in a target retrieval solution, 10 mM citrate buffer (pH 6.0), for 30 minutes. Endogenous peroxidases were blocked with a 3% of hydrogen peroxide solution in PBS buffer. The leftover hydrogen peroxide was removed with PBS rinse. […] To visualize the immunostaining, the sections were incubated with a fresh DAB solution (Dako Inc. Cat# K3468) and monitored under a microscope. […]

SRC–3 [5] = molecular target: T1, SRC–3; parameters: Cell lysate was prepared by adding RIPA buffer; endogenous in cells; host or cells: HCC1143, SUM149PT, SUM159PT, MDA-MB-231, MDA-MB-231-LM3-3; method as in PMID 22053001; details: cited from earlier work
HCC1143 = experiment: Cell cytotoxicity assay (MTT), HCC1143; type: cell-based; details: Homo sapiens, HCC1143, 72 h
Protocol: (§1) TNBC cells (5000 to 7000 cells per well) were seeded in 96-well plates in medium supplemented with 10% FBS. […] Cell viabilities relative to untreated control cells were plotted using Graphpad Prism.

SUM149PT = experiment: Cell cytotoxicity assay (MTT), SUM149PT; type: cell-based; details: 72 h
Protocol: as §1

MDA-MB–231 = experiment: Cell cytotoxicity assay (MTT), MDA-MB-231; type: cell-based; details: MDA-MB-231, 72 h
Protocol: as §1

LM3-3 cells [6] = experiment: Gefitinib and bufalin co-treatment, cell viability; type: cell-based
[7] = test system: mouse primary hepatocytes; experiment: Viability of primary hepatocytes; type: cell-based; details: concentrations of up to 10 μM
Protocol: The HCC1143 cell line was grown in RPMI–1640 medium, SUM149PT and SUM159PT cell lines were grown in F–12 medium, and MDA-MB–231 cells were grown in DMEM. All culture media were supplemented with 10% fetal bovine serum. All cell lines were grown in a humidified incubator containing 5% CO2 at 37°C. Primary hepatocytes were isolated from an adult male mouse (C57BL) by collagenase perfusion (0.8 mg/mL; Sigma–Aldrich, C5138) through the portal vein as described previously, and maintained in M199 medium with 10% FBS. The viability of freshly isolated hepatocytes was verified using Trypan blue staining.
as §1

cancer cells = details: selective toxicity towards cancer cells; cited from earlier work
SUM159PT = experiment: Cell cytotoxicity assay (MTT), SUM159PT; type: cell-based; details: 72 h
Protocol: as §1

LM3-3 cells [8] = experiment: Single cell motility assay; type: cell-based
Protocol: Microtiter 96-well plates pre-coated with collagen V were covered with beads provided by a Cell Motility HCS kit (Thermo Scientific Co. Cat# K0800011). 500 LM3-3 cells were seeded in each bead-coated well. […] The cell track areas (pixels) were counted using Image J. To attain statistical significance, more than 50 cell tracks in each sample were counted.

MDA-MB-231-LM3-3 = experiment: Cell cytotoxicity assay (MTT), MDA-MB-231-LM3-3; type: cell-based; details: MDA-MB-231-LM3-3, 72 h
Protocol: as §1

[9] = female, ICR, mouse, plasma, ip, 0.5 mg/kg
[10] = 7.5 mg/kg i.p., + 10 min post-injection
[11] = 7.5 mg/kg i.p., - 5 min (before injection)
[12] = 11.25 mg/kg i.p., + 5 min post-injection
[13] = 11.25 mg/kg i.p., + 10 min post-injection
[14] = 11.25 mg/kg i.p., + 15 min post-injection
[15] = 11.25 mg/kg i.p., - 5 min (before injection)

SMILES: C[C@]12CC[C@H](OP(=O)(O)O)C[C@H]1CC[C@@H]1[C@@H]2CC[C@]2(C)[C@@H](c3ccc(=O)oc3)CC[C@]12O [3-phospho-bufalin, 3-Phospho-bufalin]
- body weight versus control at the end of the experiment ([1]; 0.75 mg/kg 3 times per week): statistically the same body weight
- tumor growth (tumor volume) ([1]; 0.75 mg/kg, 3 times per week for 3 weeks, subcutaneously): significantly inhibit TNBC tumor growth
- tumor weight, PBS treated relative to treatment group ([1]; day 31, 0.75 mg/kg 3 times per week): ~ 2.4 times
- damage to cardiomyocytes (histology) (heart muscle): little damage to cardiomyocytes
- Ki-67 positive cells in tumor tissue (IHC) (Ki–67): dramatically fewer Ki–67 positive cells
- AUC(0-inf) [2, 9]: 0.046 ± 0.018 µM·h
- AUC(0-t) [2, 9]: 0.031 ± 0.018 µM·h
- Tmax [2, 9]: 15 min
- half-life [2, 9]: 44.5 ± 6.24 min
- conversion to parent bufalin in vivo ([2]; free bufalin detected in plasma): can be converted to parent bufalin in vivo
- changes in EKG parameters (ICR mice; 7.5 mg/kg and 11.25 mg/kg i.p.): did not observe significant changes in EKG parameters
- HR (ICR mice; [10]): 788.7 ± 1.2 BPM
- QRS (ICR mice; [10]): 11.0 ± 0.1 ms
- QT (ICR mice; [10]): 38.2 ± 0.9 ms
- QTc (ICR mice; [10]): 43.8 ± 1.0 ms
- RR (ICR mice; [10]): 76.1 ± 0.1 ms
- ST (ICR mice; [10]): 27.6 ± 0.9 ms
- HR (ICR mice; [11]): 754.7 ± 6.6 BPM
- QRS (ICR mice; [11]): 10.6 ± 0.1 ms
- QT (ICR mice; [11]): 40.2 ± 0.6 ms
- QTc (ICR mice; [11]): 45.0 ± 0.5 ms
- RR (ICR mice; [11]): 79.6 ± 0.7 ms
- ST (ICR mice; [11]): 30.1 ± 0.7 ms
- HR (ICR mice; [12]): 779.7 ± 1.5 BPM
- QRS (ICR mice; [12]): 10.9 ± 0.1 ms
- QT (ICR mice; [12]): 37.1 ± 0.3 ms
- QTc (ICR mice; [12]): 42.3 ± 0.4 ms
- RR (ICR mice; [12]): 77.0 ± 0.1 ms
- ST (ICR mice; [12]): 26.7 ± 0.4 ms
- HR (ICR mice; [13]): 761.3 ± 7.5 BPM
- QRS (ICR mice; [13]): 11.1 ± 0.2 ms
- QT (ICR mice; [13]): 38.1 ± 0.6 ms
- QTc (ICR mice; [13]): 43.0 ± 0.6 ms
- RR (ICR mice; [13]): 78.8 ± 0.8 ms
- ST (ICR mice; [13]): 26.6 ± 0.5 ms
- HR (ICR mice; [14]): 755.0 ± 1.0 BPM
- QRS (ICR mice; [14]): 11.5 ± 0.1 ms
- QT (ICR mice; [14]): 39.1 ± 0.9 ms
- QTc (ICR mice; [14]): 43.9 ± 0.9 ms
- RR (ICR mice; [14]): 79.5 ± 0.1 ms
- ST (ICR mice; [14]): 28.1 ± 0.8 ms
- HR (ICR mice; [15]): 798.0 ± 12.8 BPM
- QRS (ICR mice; [15]): 10.6 ± 0.3 ms
- QT (ICR mice; [15]): 39.1 ± 2.4 ms
- QTc (ICR mice; [15]): 45.1 ± 2.9 ms
- RR (ICR mice; [15]): 75.8 ± 0.2 ms
- ST (ICR mice; [15]): 29.0 ± 2.2 ms
- potency to inhibit SRC-3 levels compared with bufalin (SRC–3 [3]; LM3-3 cells, Western blotting): less potent than bufalin
- downregulation of SRC-3 in LM3-3 cells (Western blotting) (SRC–3 [3]; dose response): can also inhibit SRC–3 expression levels
- SRC-3 level in tumor tissue (IHC staining) versus PBS (SRC–3 [4]): significantly lower
- SRC-3 protein levels in tumor tissues (Western blotting) versus PBS (SRC–3 [4]): significantly lower

SMILES: Cc1cc2c(C(C)C)c(O)c(O)c(C=O)c2c(O)c1-c1c(C)cc2c(C(C)C)c(O)c(O)c(C=O)c2c1O [gossypol]
- IC50 values (SRC–3 [5]): micromolar

SMILES: C[C@]12CC[C@H](O)C[C@H]1CC[C@@H]1[C@@H]2CC[C@]2(C)[C@@H](c3ccc(=O)oc3)CC[C@]12O [bufalin]
- IC50 (HCC1143): 71.8 nM
- IC50 (SUM149PT): < 20 nM
- IC50 (SUM149PT; Homo sapiens): 16.6 nM
- damage to cardiomyocytes (histology) (heart muscle): little damage to cardiomyocytes
- IC50 (MDA-MB–231; Homo sapiens): 20 nM
- IC50 (MDA-MB–231): < 20 nM
- combination effect with gefitinib on LM3-3 cell viability (LM3-3 cells [6]; 5 or 10 nM bufalin with gefitinib): synergize with gefitinib
- toxicity in mouse primary hepatocytes [7]: did not cause any observable toxicity
- time post injection at which bufalin became undetectable ([2]; released bufalin after p-Buf 0.5 mg/kg i.p.): 1 h
- IC50 values (cancer cells): low nM range
- IC50 (SUM159PT): < 20 nM
- IC50 (SUM159PT; Homo sapiens, SUM-159-PT): 15.9 nM
- toxicity toward LM3-3 cells under motility assay conditions (LM3-3 cells [8]; 12 h): minimal toxicity
- motility of LM3-3 cells (LM3-3 cells [8]; increasing concentrations): decreased with increasing concentrations
- IC50 (MDA-MB-231-LM3-3; 72 h): 16.6 nM
- IC50 (MDA-MB-231-LM3-3): < 20 nM

SMILES: COc1cc2ncnc(Nc3ccc(F)c(Cl)c3)c2cc1OCCCN1CCOCC1 [gefitinib]
- toxicity in LM3-3 cells, gefitinib alone (LM3-3 cells [6]; concentrations up to 20 μM): minimal toxicity

Reference: publication PMC4592245 (PLoS ONE, 2015)
